Assay results: ChEMBL document CHEMBL1201862, “PubChem BioAssay data set” (2004)
Active and inactive are the calls of the source.

Key:
Vero [1] = assay: cells; type: functional, cell-based; details: Chlorocebus sabaeus
Vero [2] = assay: cells; type: functional; details: Chlorocebus sabaeus
HEK293 [3] = assay: inhibition of NOD1-driven NF-kB reporter – cell-based, luminescence, uHTS, primary screen (AID 1578); type: functional; details: Homo sapiens
HEK293 [4] = assay: cells; type: functional, cell-based; details: Homo sapiens
HEK293 [5] = assay: cells; type: functional, cell-based; details: Homo sapiens; remark: listed apart in the source
HEK293 [6] = assay: NOD2 signaling inhibitors in MDP-stimulated cells, cell-based, uHTS, luminescence (AID 2001); type: functional; details: Homo sapiens
[7] = Luminescence Cell-Based Dose Retest to Confirm Inhibitors of Cancer Stem Cells. [Related pubchem assays (depositor defined):AID2717, AID2721]; type: functional; details: Homo sapiens
[8] = target: T1, Heat shock factor protein 1 (Mus musculus, UniProt P38532); assay: enhancement of HSF1-driven luciferase signal – cell-based, NIH3T3, luminescence, dose retest, confirmation (AID 435004); type: functional;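 further: stress induced by proteasome inhibitor MG132 added 30 min after compound; luciferase reporter driven by HSF1 response element in NIH3T3 cells; actives raise luminescence as potentiators of the MG132 stress response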
T1 sequence (P38532 whole entry): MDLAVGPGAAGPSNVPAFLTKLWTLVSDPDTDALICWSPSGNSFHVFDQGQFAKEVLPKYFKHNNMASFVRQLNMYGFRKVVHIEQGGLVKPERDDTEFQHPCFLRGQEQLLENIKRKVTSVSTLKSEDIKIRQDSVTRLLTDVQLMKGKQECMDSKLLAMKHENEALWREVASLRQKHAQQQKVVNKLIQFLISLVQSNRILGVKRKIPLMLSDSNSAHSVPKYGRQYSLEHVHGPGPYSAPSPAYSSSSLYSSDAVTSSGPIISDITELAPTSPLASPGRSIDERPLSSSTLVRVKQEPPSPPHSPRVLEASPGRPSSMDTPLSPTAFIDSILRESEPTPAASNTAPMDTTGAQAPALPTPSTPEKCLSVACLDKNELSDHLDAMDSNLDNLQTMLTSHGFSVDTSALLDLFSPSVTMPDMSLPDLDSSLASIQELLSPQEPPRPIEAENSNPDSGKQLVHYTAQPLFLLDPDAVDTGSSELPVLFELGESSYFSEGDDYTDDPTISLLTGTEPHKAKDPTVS

HeLa = assay: ATP-based viability loss in HeLa cells – cell-based, CellTiter-Glo luminescence, cherry-pick samples, cytotoxicity control for MITF activator project, dose response (AID 540259); type: functional; details: Homo sapiens
Exodeoxyribonuclease V = target: T2, Exodeoxyribonuclease V (Escherichia coli (strain K12), UniProt P04993+P07648+P08394); assay: RecBCD inhibition via phage-restricted bacterial growth – absorbance, V66 E. coli, mutant T4 phage, counter-screen for AddAB inhibitor project, dose response (AID 492957); type: functional, cell-based, Escherichia coli str. K-12 substr. MG1655
T2 sequence (P04993 whole entry): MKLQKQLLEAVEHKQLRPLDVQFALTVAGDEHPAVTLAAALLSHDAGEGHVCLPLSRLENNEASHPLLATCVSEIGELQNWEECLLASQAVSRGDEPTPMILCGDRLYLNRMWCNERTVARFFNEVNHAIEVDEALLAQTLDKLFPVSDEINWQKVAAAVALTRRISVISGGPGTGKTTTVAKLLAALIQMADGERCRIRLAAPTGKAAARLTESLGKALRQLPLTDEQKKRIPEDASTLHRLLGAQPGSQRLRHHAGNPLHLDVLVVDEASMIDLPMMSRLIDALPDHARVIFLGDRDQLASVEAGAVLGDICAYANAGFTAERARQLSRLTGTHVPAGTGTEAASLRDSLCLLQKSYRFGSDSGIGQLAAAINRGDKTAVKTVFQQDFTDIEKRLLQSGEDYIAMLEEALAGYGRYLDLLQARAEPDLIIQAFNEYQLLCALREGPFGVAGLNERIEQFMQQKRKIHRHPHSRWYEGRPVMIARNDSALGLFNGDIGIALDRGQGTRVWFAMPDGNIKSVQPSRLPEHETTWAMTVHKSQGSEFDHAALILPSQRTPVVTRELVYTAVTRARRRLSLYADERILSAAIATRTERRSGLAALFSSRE
T2 sequence (P07648 whole entry): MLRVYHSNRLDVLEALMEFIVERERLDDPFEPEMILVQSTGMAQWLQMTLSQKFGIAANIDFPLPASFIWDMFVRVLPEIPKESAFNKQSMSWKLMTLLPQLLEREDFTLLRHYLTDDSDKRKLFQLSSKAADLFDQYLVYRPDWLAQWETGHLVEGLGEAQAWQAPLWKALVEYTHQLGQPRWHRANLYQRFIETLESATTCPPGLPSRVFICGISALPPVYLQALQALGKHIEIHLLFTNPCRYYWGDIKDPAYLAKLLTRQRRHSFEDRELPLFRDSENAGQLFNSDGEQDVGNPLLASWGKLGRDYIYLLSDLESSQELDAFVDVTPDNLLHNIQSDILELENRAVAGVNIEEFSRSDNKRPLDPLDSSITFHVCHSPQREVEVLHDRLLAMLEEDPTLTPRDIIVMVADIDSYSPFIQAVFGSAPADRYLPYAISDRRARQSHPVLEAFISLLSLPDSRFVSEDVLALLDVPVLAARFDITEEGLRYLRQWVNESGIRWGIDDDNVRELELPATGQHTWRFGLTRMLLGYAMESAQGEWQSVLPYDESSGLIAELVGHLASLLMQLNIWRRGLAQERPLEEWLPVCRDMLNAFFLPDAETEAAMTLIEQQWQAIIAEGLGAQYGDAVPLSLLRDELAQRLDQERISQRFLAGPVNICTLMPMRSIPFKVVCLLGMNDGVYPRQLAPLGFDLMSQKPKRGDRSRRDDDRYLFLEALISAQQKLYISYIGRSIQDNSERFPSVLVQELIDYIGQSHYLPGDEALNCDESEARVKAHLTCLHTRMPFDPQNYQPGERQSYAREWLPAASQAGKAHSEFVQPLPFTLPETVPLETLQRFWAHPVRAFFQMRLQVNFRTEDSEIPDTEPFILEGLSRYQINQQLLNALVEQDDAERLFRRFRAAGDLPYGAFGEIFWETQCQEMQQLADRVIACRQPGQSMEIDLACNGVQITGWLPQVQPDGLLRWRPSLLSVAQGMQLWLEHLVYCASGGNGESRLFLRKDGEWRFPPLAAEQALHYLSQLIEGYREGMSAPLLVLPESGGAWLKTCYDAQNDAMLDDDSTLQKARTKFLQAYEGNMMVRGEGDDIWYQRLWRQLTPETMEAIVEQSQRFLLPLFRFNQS
T2 sequence (P08394 whole entry): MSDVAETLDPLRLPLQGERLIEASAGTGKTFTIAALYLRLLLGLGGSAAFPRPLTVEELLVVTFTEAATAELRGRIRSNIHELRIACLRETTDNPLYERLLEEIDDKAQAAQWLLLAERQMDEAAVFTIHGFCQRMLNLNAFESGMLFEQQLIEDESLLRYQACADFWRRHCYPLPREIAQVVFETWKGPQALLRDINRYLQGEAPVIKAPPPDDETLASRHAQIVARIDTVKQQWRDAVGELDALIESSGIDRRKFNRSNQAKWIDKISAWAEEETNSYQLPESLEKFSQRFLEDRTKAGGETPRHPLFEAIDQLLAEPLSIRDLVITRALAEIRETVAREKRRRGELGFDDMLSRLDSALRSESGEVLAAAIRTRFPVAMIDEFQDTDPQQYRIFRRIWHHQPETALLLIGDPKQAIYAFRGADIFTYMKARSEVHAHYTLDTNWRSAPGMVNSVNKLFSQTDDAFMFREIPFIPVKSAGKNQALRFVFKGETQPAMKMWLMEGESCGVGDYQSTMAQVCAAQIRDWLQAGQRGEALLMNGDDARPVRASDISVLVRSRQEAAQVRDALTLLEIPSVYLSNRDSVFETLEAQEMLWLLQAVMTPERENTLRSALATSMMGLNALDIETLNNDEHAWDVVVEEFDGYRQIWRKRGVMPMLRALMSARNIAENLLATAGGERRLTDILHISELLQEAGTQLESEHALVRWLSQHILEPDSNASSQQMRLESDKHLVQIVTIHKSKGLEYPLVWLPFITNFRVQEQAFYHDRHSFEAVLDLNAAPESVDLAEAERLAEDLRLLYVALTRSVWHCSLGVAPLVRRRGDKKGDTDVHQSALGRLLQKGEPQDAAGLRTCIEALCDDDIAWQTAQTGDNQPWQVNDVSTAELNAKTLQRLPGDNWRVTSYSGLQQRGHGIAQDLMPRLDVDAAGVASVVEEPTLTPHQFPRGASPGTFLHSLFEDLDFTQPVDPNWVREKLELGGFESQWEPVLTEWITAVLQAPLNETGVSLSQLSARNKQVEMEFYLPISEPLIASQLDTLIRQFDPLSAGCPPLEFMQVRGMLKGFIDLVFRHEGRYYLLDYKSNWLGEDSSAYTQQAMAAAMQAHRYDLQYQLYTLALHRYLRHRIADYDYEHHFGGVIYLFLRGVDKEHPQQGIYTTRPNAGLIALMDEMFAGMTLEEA

[9] = Counterscreen for AddAB inhibitors: absorbance-based bacterial cell-based high throughput dose response assay for inhibitors of bacterial viability. [Related pubchem assays (depositor defined):AID435030, AID449728, AID449731, AID488942, AID488955, AID488956]; type: functional

Structure (SMILES) | IC50 (Vero [1]) | CC50 (Vero [2]) | AC50 [7] | further results
COc1ccc(-c2nn(-c3ccccc3)cc2C(=O)NC(=S)NNC(=O)c2ccncc2)cc1 | 16.6 µM (active) | 16.4 µM (active) | – | –
C=C(C(=O)c1ccccc1)C(CC(=O)c1ccccc1)c1ccccc1 (stereo unspecified) | 21.4 µM (active) | 21 µM (active) | 2.07 µM (active) | EC50 (HEK293 [3]): 8.67 µM (active); IC50 (HEK293 [4]): 1.42 µM (active); IC50 (HEK293 [5]): > 20 µM (inactive); IC50 (HEK293 [6]): 4.04 µM (active); EC50 [8]: 7.91 µM (active)
CC1(C)CN=c2s/c(=C\c3ccc(Cl)cc3)c(=O)n2C1 | – | – | – | AC50 (HeLa): 277 µM (active)
C[C@]12CC[C@H](O)C[C@H]1CC[C@@H]1[C@@H]2CC[C@]2(C)[C@@H](C3=CC(=O)OC3)[C@@H](O)C[C@]12O [GITOXIGENIN] | > 12.5 µM (active) | 6.88 µM (active) | 2.58 µM (active) | –
O=C1CCC(=O)N(O)CCCCCNC(=O)CCC(=O)N(O)CCCCCNC(=O)CCC(=O)N(O)CCCCCN1 [NOCARDAMINE] | – | – | – | IC50 (Exodeoxyribonuclease V): > 119 µM (inactive); IC50 [9]: > 119 µM (inactive)
